# From patent US7994399B2, “Methods for the production of stably transformed, fertile Zea mays plants” (BASF Plant Science GmbH, priority 2005, dated 2011)
# Marks after values point to notes of the source that are not given here.
# Tests used:
# [1] = test system: Zea mays immature embryos; assay: Agrobacterium-mediated transformation of maize immature embryos, additives in the co-cultivation medium; type: cell-based; conditions: for Average TE (%) (transformation efficiency): L-cysteine added (+) to co-cultivation medium, split-cob design, drop inoculation
# Method: Adjust pH media to 5.8 with 1 M NaOH. Weigh 4 g Sigma Purified Agar per bottle (8 g/L) and dispense 500 mL media per bottle, autoclave. When cooled add AgNO3 (stock at 15 mM) to a final concentration of 15 μM and L-cysteine (stock at 150 mg/ml) to a final concentration 300 mg/l. Pour into 100×20 mm Petri plates. Medium containing acetosyringone should be used freshly without long term storage.
# Excised immature embryos are directly put on the co-cultivation medium (medium A-3) with the flat side down (scutellum upward). Each plate (20×100 mm plate) can hold up to 100 immature embryos. Put 5 μl of diluted Agrobacterium cell suspension to each immature embryo with a repeat pipettor. Remove excess moisture covering immature embryos by leaving the plate cover open in the hood for about 15 min. Seal the plate with 3M micropore tape and wrap with aluminum foil. Incubate the plate in the dark at 22° C. for 2 to 3 days. Take 3-5 immature embryos for GUS staining if a GUS construct is used to assess transient GUS expression.
# Maize XA17 mutants = conditions: cited from earlier work
# XI12 mutant maize lines = conditions: cited from earlier work
# [2] = addition to co-cultivation medium, BPS553×(HiIIA×A188) genotypes
SMILES,"Effect on transformation efficiency [1, 2]","Average TE (%) (transformation efficiency) ([1]; hybrid BPS553x(HillAxA188), 20 experiments)","Average TE (%) (transformation efficiency) ([1]; inbred BPS553, 27 experiments)",Effect on transformation efficiency ([1]; presence in the co-cultivation medium),Resistance or tolerance of the plants to the herbicide (Maize XA17 mutants),Resistance or sensitivity of the plants to the herbicide (XI12 mutant maize lines)
O=[N+]([O-])[O-].[Ag+] [silver nitrate],further enhances transformation efficiency,,,,,
N[C@@H](CS)C(=O)O [L-Cysteine],further enhances transformation efficiency,32.2* %,9.6* %,significantly increasing transformation efficiency,,
CC(C)C1(C)N=C(c2nc3ccccc3cc2C(=O)O)NC1=O (stereo not drawn) [imazaquin],,,,,highly resistant,sensitive
CCc1cnc(C2=NC(C)(C(C)C)C(=O)N2)c(C(=O)O)c1 (stereo not drawn) [imazethapyr],,,,,highly resistant,highly resistant
